{"source": "BindingDB's records for patent US10112941", "about": "(Bristol-Myers Squibb, 2018)", "molecular_target": "Bromodomain-containing protein 4 (Homo sapiens, UniProt O60885)", "experiment": "TR-FRET Assay", "method": "All assay components were dissolved in buffer composition 20 mM Hepes pH 7.5, 150 mM NaCl, 5 mM DTT, 0.005% Tween 20, and 100 ug/ml BSA for BRD4 (1-477 and 44-460). The final concentrations of the bromodomain proteins are 1.6 nM BRD4(44-168), 1 nM BRD4(333-460), and 1 nM BRD4(1-477 or 44-460), and the fluorescent probe molecule is 100 nM, 50 nM, and 7.5 nM respectively. All proteins were biotinylated. A streptavidin labeled with terbium cryptate (Cisbio SA-Tb) was used as detection, and pre-mixed with the bromodomain protein at a final concentration of 0.2 nM. In some instances for BRD4 (44-460), anti-His terbium cryptate was used as a detection. 7.5 nl of dose-responsed test compound or dmso vehicle (0.0375%) was pre-spotted in a black Corning 384 well plate and 10 ul each of bromodomain/detection reagent and fluorescent small molecule solution were added to the plate, and the reaction incubated for 60 min at room temperature. Plates were then read on EnVision plate reader, (λex=340 nm, acceptor λEm=520 nm, and donor λEm=615 nm, LANCE D400 mirror). Time resolved fluorescence intensity measurements were made at both emissions, and the ratio of acceptor/donor was calculated and used for data analysis.", "data": [{"smiles": "Cc1nnn(C)c1-c1cnc2c3ccc(C(C)(C)O)cc3n([C@@H](c3ccccc3F)C3CCOCC3)c2c1", "note": "[US10112941, Example 65]", "values": [{"measurement": "IC50", "value": "< 5", "unit": "nM"}]}]}
